According to PubChem BioAssay AID2060625 (Molecular Pharmacology Branch, DTP, NCI, 2025):

System: 186277-243-T-J2-PDC spheroids with HUVEC/MSC, viability
Assay: Anticancer human tumor 186277-243-T-J2-PDC patient-derived colon adenocarcinoma cell line growth inhibition [CLK]
Conditions: for IC50: curve of first compound; for viability, T/C: stronger effect = lower value
How it was run: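 Multi-cell-type spheroids combined patient-derived tumor cells with HUVEC endothelial cells and human mesenchymal stem cells. Paired agents were dosed in half-log steps down from about clinical Cmax, or from 10 microM where Cmax was unknown.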
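Note: compound exposure lasted seven days before readout.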
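Throughout, for viability, T/C: 100% = DMSO vehicle control wells.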

## C=CC(=O)N1CCN(c2nc(=O)n(-c3c(C)ccnc3C(C)C)c3nc(-c4c(O)cccc4F)c(F)cc23)C(C)C1 (configuration not stated) + CNC(=O)c1ccc(Nc2nc(OC3CCCC3)c3c(-c4ccc5nc(C)oc5c4)c[nH]c3n2)c(OC)c1
Second compound 0.0316 µM
  IC50: > 10 µM
Second compound 0.1 µM
  IC50: > 10 µM
Second compound 0.316 µM
  IC50: 2.16 µM
Second compound 1 µM
  IC50: < 0.0316 µM
Second compound 3.16 µM
  IC50: < 0.0316 µM
Second compound 10 µM
  IC50: < 0.0316 µM
Second compound 0.0316 µM, first compound 0.0316 µM
  viability, T/C: 91.3%
Second compound 0.0316 µM, first compound 0.1 µM
  viability, T/C: 89.6%
Second compound 0.0316 µM, first compound 0.316 µM
  viability, T/C: 100%
Second compound 0.0316 µM, first compound 1 µM
  viability, T/C: 86.2%
Second compound 0.0316 µM, first compound 3.16 µM
  viability, T/C: 114%
Second compound 0.0316 µM, first compound 10 µM
  viability, T/C: 110%
Second compound 0.1 µM, first compound 0.0316 µM
  viability, T/C: 77.3%
Second compound 0.1 µM, first compound 0.1 µM
  viability, T/C: 79.4%
Second compound 0.1 µM, first compound 0.316 µM
  viability, T/C: 77.7%
Second compound 0.1 µM, first compound 1 µM
  viability, T/C: 77.8%
Second compound 0.1 µM, first compound 3.16 µM
  viability, T/C: 72%
Second compound 0.1 µM, first compound 10 µM
  viability, T/C: 58.2%
Second compound 0.316 µM, first compound 0.0316 µM
  viability, T/C: 55.5%
Second compound 0.316 µM, first compound 0.1 µM
  viability, T/C: 51.2%
Second compound 0.316 µM, first compound 0.316 µM
  viability, T/C: 48%
Second compound 0.316 µM, first compound 1 µM
  viability, T/C: 57%
Second compound 0.316 µM, first compound 3.16 µM
  viability, T/C: 47.4%
Second compound 0.316 µM, first compound 10 µM
  viability, T/C: 38.5%
Second compound 1 µM, first compound 0.0316 µM
  viability, T/C: 39.4%
Second compound 1 µM, first compound 0.1 µM
  viability, T/C: 39.4%
Second compound 1 µM, first compound 0.316 µM
  viability, T/C: 39.3%
Second compound 1 µM, first compound 1 µM
  viability, T/C: 34.7%
Second compound 1 µM, first compound 3.16 µM
  viability, T/C: 38.3%
Second compound 1 µM, first compound 10 µM
  viability, T/C: 28%
Second compound 3.16 µM, first compound 0.0316 µM
  viability, T/C: 38.4%
Second compound 3.16 µM, first compound 0.1 µM
  viability, T/C: 38.2%
Second compound 3.16 µM, first compound 0.316 µM
  viability, T/C: 34.9%
Second compound 3.16 µM, first compound 1 µM
  viability, T/C: 34.3%
Second compound 3.16 µM, first compound 3.16 µM
  viability, T/C: 34.9%
Second compound 3.16 µM, first compound 10 µM
  viability, T/C: 23.8%
Second compound 10 µM, first compound 0.0316 µM
  viability, T/C: 35.4%
Second compound 10 µM, first compound 0.1 µM
  viability, T/C: 33.5%
Second compound 10 µM, first compound 0.316 µM
  viability, T/C: 36.3%
Second compound 10 µM, first compound 1 µM
  viability, T/C: 37.8%
Second compound 10 µM, first compound 3.16 µM
  viability, T/C: 37.1%
Second compound 10 µM, first compound 10 µM
  viability, T/C: 24.4%
